Publication PMC6414448, “Acaricidal Mechanism of Scopoletin Against Tetranychus cinnabarinus” (Frontiers in Physiology, 2019)

Biological target: T1, TcGPCR (G-protein-coupled neuropeptide receptor) (Tetranychus cinnabarinus, UniProt A0A2L1GE98)
T1 construct: full ORF in pcDNA3.1(+), transient expression in CHO-WTA11 cells with aequorin and Galpha16; seven TM helices, rhodopsin-like; T. urticae orthologue locus tetur02g03830
T1 sequence (A0A2L1GE98 1-513): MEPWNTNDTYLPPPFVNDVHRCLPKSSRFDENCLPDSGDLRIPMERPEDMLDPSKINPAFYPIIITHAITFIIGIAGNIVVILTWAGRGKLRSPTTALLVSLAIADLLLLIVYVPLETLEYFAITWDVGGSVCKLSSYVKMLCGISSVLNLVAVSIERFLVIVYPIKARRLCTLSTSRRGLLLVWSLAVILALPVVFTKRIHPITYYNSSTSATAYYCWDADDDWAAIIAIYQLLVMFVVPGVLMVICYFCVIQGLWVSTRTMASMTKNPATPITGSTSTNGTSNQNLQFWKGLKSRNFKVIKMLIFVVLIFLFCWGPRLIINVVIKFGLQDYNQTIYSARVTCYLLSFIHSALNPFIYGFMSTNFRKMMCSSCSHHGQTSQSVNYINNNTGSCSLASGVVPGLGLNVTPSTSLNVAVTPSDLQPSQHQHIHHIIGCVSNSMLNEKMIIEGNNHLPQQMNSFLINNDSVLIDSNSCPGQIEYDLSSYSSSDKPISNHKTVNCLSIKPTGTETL
Assay: aequorin luminescence calcium mobilization in transfected CHO-WTA11 cells
Assay type: cell-based
Description: aequorin luminescence calcium mobilization in transfected CHO-WTA11 cells on TcGPCR (G-protein-coupled neuropeptide receptor) | CHO cells expressing TcGPCR was induced by scopoletin in a concentration-dependent manner

## COc1cc2ccc(=O)oc2cc1O [scopoletin]
  EC50: 280 nM
